Consider five compounds from US10004724B2, “Compounds alpha v beta 6 integrin antagonists” (GlaxoSmithKline Intellectual Property Development Limited, priority 2014, dated 2018).

Holding throughout (type): cell-based
One assay concerns the target T1, K562-αvβ6 (LAP-b1) (Homo sapiens, UniProt P06756+P18564).
T1 construct: expressed in transfected cells; host or cells: K562
As to the kind of experiment: Cell Adhesion Assay αvβ6. The conditions noted are these: K562-αvβ6 cells, ligand LAP-b1, 2 mM MgCl2, BCECF-AM fluorescence; read-out: mean affinity (pIC50) αvβ6 (converted).

Another assay addresses αvβ1 (Homo sapiens, UniProt P05556+P06756). Put plainly: Cell Adhesion Assay αvβ1. The conditions noted are these: cell line and ligand for αvβ1 not listed in method, read-out: mean affinity (pIC50) αvβ1 (converted).
For another assay, the target named is T2, K562-αvβ8 (LAP-b1) (Homo sapiens, UniProt P06756+P26012).
T2 construct: expressed in transfected cells; host or cells: K562
As to the kind of experiment: Cell Adhesion Assay αvβ8. The conditions noted are these: K562-αvβ8 cells, ligand LAP-b1, 2 mM MgCl2, BCECF-AM fluorescence; read-out: mean affinity (pIC50) αvβ8 (converted).

The target in the next assay is T3, K562-αvβ5 (Vitronectin) (Homo sapiens, UniProt P06756+P18084).
T3 construct: expressed in transfected cells; host or cells: K562
Put plainly: Cell Adhesion Assay αvβ5. The conditions noted are these: K562-αvβ5 cells, ligand Vitronectin, 2 mM MgCl2, BCECF-AM fluorescence; read-out: mean affinity (pIC50) αvβ5 (converted).

Another assay has as its target T4, K562-αvβ3 (LAP-b1) (Homo sapiens, UniProt P05106+P06756).
T4 construct: expressed in transfected cells; host or cells: K562
Put plainly: Cell Adhesion Assay αvβ3. The conditions noted are these: K562-αvβ3 cells, ligand LAP-b1, 2 mM MgCl2, BCECF-AM fluorescence; read-out: mean affinity (pIC50) αvβ3 (converted).

T3 sequence (P06756 31-889 limits assumed): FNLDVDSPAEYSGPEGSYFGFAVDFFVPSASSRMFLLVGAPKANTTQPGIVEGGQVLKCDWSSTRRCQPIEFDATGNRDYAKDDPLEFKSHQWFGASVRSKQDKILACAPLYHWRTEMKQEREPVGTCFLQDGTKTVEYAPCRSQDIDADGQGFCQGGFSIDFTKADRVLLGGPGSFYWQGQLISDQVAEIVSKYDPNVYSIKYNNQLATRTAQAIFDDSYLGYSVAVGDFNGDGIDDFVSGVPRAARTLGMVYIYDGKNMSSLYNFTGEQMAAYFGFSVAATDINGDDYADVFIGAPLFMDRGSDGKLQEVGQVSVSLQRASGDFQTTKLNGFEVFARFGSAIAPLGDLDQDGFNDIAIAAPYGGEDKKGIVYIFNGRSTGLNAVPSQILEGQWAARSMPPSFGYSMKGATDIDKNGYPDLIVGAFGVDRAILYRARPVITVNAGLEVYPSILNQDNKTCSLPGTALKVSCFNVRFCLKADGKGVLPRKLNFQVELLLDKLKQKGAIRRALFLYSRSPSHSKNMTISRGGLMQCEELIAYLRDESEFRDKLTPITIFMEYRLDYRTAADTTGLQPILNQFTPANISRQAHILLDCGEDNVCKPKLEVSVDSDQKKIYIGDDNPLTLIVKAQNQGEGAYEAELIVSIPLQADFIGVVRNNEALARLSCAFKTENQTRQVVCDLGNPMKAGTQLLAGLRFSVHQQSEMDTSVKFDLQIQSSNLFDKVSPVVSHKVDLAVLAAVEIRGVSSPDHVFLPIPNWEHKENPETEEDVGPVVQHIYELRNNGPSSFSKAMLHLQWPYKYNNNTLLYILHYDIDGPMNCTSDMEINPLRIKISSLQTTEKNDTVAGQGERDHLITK
T3 sequence (P06756 891-1048 limits assumed): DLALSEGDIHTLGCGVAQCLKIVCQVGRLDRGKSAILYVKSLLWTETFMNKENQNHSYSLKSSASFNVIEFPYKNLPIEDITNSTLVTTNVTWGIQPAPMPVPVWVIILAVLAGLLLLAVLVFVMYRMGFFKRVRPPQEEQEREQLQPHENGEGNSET
T3 sequence (P18084 24-799): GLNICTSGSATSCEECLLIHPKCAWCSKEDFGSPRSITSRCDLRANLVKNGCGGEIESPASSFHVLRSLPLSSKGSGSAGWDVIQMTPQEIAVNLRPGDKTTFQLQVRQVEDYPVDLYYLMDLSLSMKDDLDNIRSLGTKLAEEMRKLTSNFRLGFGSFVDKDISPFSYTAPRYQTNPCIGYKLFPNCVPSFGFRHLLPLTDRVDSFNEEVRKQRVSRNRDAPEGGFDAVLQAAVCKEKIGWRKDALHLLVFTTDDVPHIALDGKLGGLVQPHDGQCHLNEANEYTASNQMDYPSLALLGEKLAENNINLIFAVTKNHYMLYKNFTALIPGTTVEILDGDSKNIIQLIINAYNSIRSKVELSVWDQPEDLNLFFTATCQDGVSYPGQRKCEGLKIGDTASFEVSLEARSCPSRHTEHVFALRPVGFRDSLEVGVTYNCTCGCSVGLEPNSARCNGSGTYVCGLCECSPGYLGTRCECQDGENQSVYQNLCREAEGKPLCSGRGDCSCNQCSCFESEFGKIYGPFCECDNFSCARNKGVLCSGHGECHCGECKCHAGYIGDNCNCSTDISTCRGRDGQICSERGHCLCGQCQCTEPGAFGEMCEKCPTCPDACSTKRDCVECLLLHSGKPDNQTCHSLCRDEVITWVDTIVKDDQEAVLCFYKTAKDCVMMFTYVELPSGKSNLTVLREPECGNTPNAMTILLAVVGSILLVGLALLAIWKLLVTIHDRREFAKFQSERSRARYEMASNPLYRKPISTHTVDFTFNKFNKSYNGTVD
T1 sequence (P06756 31-889 limits assumed): as the sequence (P06756 31-889 limits assumed) above
T1 sequence (P06756 891-1048 limits assumed): as the sequence (P06756 891-1048 limits assumed) above
T1 sequence (P18564 22-788): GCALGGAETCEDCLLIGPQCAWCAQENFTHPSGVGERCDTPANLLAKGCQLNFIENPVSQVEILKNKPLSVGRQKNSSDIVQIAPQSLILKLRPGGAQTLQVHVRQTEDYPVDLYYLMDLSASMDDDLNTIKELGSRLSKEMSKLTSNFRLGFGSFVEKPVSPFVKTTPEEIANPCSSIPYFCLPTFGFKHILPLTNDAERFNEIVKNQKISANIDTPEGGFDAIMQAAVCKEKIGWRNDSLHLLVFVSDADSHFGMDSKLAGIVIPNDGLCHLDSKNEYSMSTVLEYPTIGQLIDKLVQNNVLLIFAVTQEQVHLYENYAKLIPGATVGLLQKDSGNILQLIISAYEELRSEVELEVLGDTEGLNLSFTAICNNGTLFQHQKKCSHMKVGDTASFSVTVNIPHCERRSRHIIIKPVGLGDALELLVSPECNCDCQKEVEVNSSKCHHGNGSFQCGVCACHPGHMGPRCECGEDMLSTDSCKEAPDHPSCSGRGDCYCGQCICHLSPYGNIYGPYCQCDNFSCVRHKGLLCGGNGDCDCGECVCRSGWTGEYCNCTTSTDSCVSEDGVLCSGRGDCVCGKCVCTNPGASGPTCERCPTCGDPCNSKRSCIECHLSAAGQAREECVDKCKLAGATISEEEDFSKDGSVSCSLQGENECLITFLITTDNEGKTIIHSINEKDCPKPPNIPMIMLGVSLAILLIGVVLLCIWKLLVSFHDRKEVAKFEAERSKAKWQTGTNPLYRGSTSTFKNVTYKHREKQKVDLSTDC
T4 sequence (P06756 31-889 limits assumed): as the sequence (P06756 31-889 limits assumed) above
T4 sequence (P06756 891-1048 limits assumed): as the sequence (P06756 891-1048 limits assumed) above
T4 sequence (P05106 27-788): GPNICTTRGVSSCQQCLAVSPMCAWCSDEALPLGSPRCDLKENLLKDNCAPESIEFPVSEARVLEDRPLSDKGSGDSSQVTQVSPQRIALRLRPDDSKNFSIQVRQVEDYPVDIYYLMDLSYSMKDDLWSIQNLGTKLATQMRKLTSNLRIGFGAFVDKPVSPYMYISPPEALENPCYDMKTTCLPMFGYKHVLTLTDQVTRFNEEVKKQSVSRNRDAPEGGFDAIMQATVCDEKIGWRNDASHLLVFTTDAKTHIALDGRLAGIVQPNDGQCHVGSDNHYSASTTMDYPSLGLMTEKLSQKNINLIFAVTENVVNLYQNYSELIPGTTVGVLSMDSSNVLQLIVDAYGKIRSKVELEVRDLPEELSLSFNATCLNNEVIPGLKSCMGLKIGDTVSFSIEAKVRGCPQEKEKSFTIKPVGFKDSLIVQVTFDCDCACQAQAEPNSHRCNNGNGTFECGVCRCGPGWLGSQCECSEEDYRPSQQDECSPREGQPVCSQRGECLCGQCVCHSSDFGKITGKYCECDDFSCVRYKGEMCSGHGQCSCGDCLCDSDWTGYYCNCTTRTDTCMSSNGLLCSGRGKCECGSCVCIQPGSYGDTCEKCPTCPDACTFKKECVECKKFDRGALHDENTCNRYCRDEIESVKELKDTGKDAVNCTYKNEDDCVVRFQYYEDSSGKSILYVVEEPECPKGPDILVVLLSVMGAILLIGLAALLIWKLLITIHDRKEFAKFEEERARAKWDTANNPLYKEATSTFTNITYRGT
T2 sequence (P06756 31-889 limits assumed): as the sequence (P06756 31-889 limits assumed) above
T2 sequence (P06756 891-1048 limits assumed): as the sequence (P06756 891-1048 limits assumed) above
T2 sequence (P26012 43-769): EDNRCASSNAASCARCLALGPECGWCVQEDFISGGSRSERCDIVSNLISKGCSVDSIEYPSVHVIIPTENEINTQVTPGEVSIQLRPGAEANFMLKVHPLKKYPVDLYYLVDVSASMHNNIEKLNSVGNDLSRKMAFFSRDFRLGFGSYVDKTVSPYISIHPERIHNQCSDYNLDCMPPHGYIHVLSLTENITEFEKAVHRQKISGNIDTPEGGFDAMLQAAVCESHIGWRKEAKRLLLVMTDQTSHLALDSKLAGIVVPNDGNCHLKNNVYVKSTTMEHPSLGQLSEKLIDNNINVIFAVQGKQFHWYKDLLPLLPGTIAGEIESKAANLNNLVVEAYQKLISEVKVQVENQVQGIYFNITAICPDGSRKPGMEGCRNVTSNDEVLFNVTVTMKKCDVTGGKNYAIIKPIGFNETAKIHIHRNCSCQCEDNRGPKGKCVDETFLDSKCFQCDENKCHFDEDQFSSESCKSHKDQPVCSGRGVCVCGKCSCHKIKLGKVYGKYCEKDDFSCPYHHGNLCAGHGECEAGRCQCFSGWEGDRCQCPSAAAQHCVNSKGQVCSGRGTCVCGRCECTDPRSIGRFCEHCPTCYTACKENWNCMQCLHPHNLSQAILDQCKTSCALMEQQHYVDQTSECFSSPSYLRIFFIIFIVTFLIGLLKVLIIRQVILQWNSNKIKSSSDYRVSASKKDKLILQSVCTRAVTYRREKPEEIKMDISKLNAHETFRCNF
Method for K562-αvβ3 (LAP-b1): (§1) The divalent cation used to facilitate adhesion was 2 mM MgCl2. Adhesion was quantified by cell labelling with the fluorescent dye BCECF-AM (Life Technologies), where cell suspensions at 3×10^6 cells/mL were incubated with 0.33 mL/mL of 30 mM BCECF-AM at 37° C. for 10 minutes, before dispensing into the assay plate. At the assay conclusion cells that adhered were lysed using 50 μL/well of 0.5% Triton X-100 in H2O to release fluorescence. Fluorescence intensity was detected using an Envision® plate reader (Perkin Elmer).
Method for K562-αvβ5 (Vitronectin): as §1
Method for K562-αvβ6 (LAP-b1): as §1
Method for K562-αvβ8 (LAP-b1): as §1
Method for αvβ1: as §1

With `O=C(O)C[C@H](CN1CC[C@@H](CCc2ccc3c(n2)NCCC3)C1)c1cc(N2CCOCC2)cc(-n2cccn2)c1` [Example 3, (S)-3-(3-morpholino-5-(1H-pyrazol-1-yl)phenyl)-4-((R)-3-(2-(5,6,7,8-tetrahydro-1,8-naphthyridin-2-yl)ethyl)pyrrolidin-1-yl)butanoic acid], the IC50 at K562-αvβ6 (LAP-b1) was 3.16 nM; on αvβ1 it was 50.1 nM; on K562-αvβ8 (LAP-b1) it was 15.8 nM; at K562-αvβ5 (Vitronectin) it was 200 nM; at K562-αvβ3 (LAP-b1) it was 3980 nM.
`O=C(O)C[C@H](CN1CC[C@@H](CCc2ccc3c(n2)NCCC3)C1)c1cc(-c2cn[nH]c2)cc(N2CCOCC2)c1` [Example 8, (S)-3-(3-Morpholino-5-(1H-pyrazol-4-yl)phenyl)-4-((R)-3-(2-(5,6,7,8-tetrahydro-1,8-naphthyridin-2-yl)ethyl)pyrrolidin-1-yl)butanoic acid]: the IC50 at K562-αvβ6 (LAP-b1) was 5.01 nM; on K562-αvβ8 (LAP-b1), 5.01 nM; on K562-αvβ5 (Vitronectin), 63.1 nM; on K562-αvβ3 (LAP-b1) it was 3980 nM.
As to `Cc1ccn(-c2cc(C(CC(=O)O)CN3CC[C@@H](CCc4ccc5c(n4)NCCC5)C3)cc(N3CCOCC3)c2)n1` (mixture of isomers) [Example 4, 3-(3-(3-methyl-1H-pyrazol-1-yl)-5-morpholinophenyl)-4-((R)-3-(2-(5,6,7,8-tetrahydro-1,8-naphthyridin-2-yl)ethyl)pyrrolidin-1-yl)butanoic acid], the IC50 is 31.6 nM at K562-αvβ8 (LAP-b1), 158 nM on K562-αvβ5 (Vitronectin) and 6310 nM at K562-αvβ3 (LAP-b1).
On to `O=C(O)C[C@H](CN1CC[C@@H](CCc2ccc3c(n2)NCCC3)C1)c1cc(-c2ccn[nH]2)cc(N2CCOCC2)c1` [Example 6, (S)-3-(3-Morpholino-5-(1H-pyrazol-5-yl)phenyl)-4-((R)-3-(2-(5,6,7,8-tetrahydro-1,8-naphthyridin-2-yl)ethyl)pyrrolidin-1-yl)butanoic acid], for which the IC50 is 3.16 nM on K562-αvβ6 (LAP-b1); 10 nM at αvβ1; 7.94 nM on K562-αvβ8 (LAP-b1); 50.1 nM on K562-αvβ5 (Vitronectin); 1260 nM at K562-αvβ3 (LAP-b1).
Consider `Cc1cc(-c2cc([C@H](CC(=O)O)CN3CC[C@@H](CCc4ccc5c(n4)NCCC5)C3)cc(N3CCOCC3)c2)[nH]n1` [Example 7, (S)-3-(3-(3-Methyl-1H-pyrazol-5-yl)-5-morpholinophenyl)-4-((R)-3-(2-(5,6,7,8-tetrahydro-1,8-naphthyridin-2-yl)ethyl)pyrrolidin-1-yl)butanoic acid], for which the IC50 was 10 nM on K562-αvβ6 (LAP-b1), 25.1 nM at K562-αvβ8 (LAP-b1), 200 nM on K562-αvβ5 (Vitronectin) and 2000 nM on K562-αvβ3 (LAP-b1).
